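Step 1: Grow cells in 96-well plates. Step 2: Expose to compound for 48 hours at 5 concentrations. Step 3: Interpolate endpoints linearly; if unreached, use highest concentration. At the GI50, growth is halved.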 Active and inactive are the calls of the source. Rule as the data show it: active = GI50 up to about 1.1 µM and inactive = higher.
Tests used:
Assay in all cases: NCI tumour cell line growth inhibition, 48 h
HCT-15 = system: HCT-15
UACC-62 = system: UACC-62
SK-MEL-5 = system: SK-MEL-5
RPMI-8226 = system: RPMI-8226
CAKI-1 = system: CAKI-1
UACC-257 = system: UACC-257
KM12 = system: KM12
TK-10 = system: TK-10
RXF 393 = system: RXF 393
HT-29 = system: HT-29
T47D = system: T47D
SNB-19 = system: SNB-19
NCI-H226 = system: NCI-H226
NCI/ADR-RES = system: NCI/ADR-RES
SK-MEL-28 = system: SK-MEL-28
SNB-75 = system: SNB-75
SF-539 = system: SF-539

Row | Compound | GI50 (HCT-15) | GI50 (UACC-62) | GI50 (SK-MEL-5) | GI50 (RPMI-8226) | GI50 (CAKI-1) | GI50 (UACC-257) | GI50 (KM12) | GI50 (TK-10) | GI50 (RXF 393) | GI50 (HT-29) | GI50 (T47D) | GI50 (SNB-19) | GI50 (NCI-H226) | GI50 (NCI/ADR-RES) | GI50 (SK-MEL-28) | GI50 (SNB-75) | GI50 (SF-539)
1 | C[C@@](Br)(C(=O)O)[C@H](Br)C(=O)O | > 100 µM | > 100 µM (inactive) | > 100 µM (inactive) | > 100 µM (inactive) | 55.5 µM (inactive) | > 100 µM (inactive) | > 100 µM (inactive) | > 100 µM (inactive) | > 100 µM (inactive) | > 100 µM (inactive) | > 100 µM (inactive) | > 100 µM (inactive) | > 100 µM (inactive) | > 100 µM (inactive) | > 100 µM (inactive) | 81.3 µM (inactive) | 
2 | COc1cccc(CSCC(=O)O)c1 | > 100 µM | > 100 µM (inactive) | > 100 µM (inactive) | > 100 µM (inactive) | > 100 µM (inactive) | > 100 µM (inactive) | > 100 µM (inactive) | > 100 µM (inactive) | > 100 µM (inactive) | > 100 µM (inactive) | > 100 µM (inactive) | > 100 µM (inactive) | > 100 µM (inactive) | > 100 µM (inactive) | > 100 µM (inactive) | > 100 µM (inactive) | > 100 µM (inactive)
3 | NC(=O)C(=CNC(=S)Nc1ccc(Cl)c(Cl)c1)C(N)=O | 45.1 µM | 49.8 µM (inactive) | 42.3 µM (inactive) | 36.1 µM (inactive) | 59.4 µM (inactive) | > 100 µM (inactive) | 55.1 µM (inactive) | > 77.8 µM (inactive) | > 49.9 µM (inactive) | 46.3 µM (inactive) | 12.2 µM (inactive) | > 94.8 µM (inactive) | 0.374 µM (active) | 85.1 µM (inactive) | > 100 µM (inactive) | > 59.6 µM (inactive) | 26.7 µM (inactive)
4 | Cc1c2oc3c(C)cnc(C(=O)NC4C(=O)NC(C(C)C)C(=O)N5CCCC5C(=O)N(C)CC(=O)N(C)C(C(C)C)C(=O)OC4C)c3nc-2c(C(=O)NC2C(=O)NC(C(C)C)C(=O)N3CCCC3C(=O)N(C)CC(=O)N(C)C(C(C)C)C(=O)OC2C)c(N)c1=O (centres undefined) | 21 µM | 1.32 µM (inactive) | 1.04 µM (active) | 0.211 µM (active) | 10.9 µM (inactive) | 4.58 µM (inactive) | 5.94 µM (inactive) | 22.9 µM (inactive) | 1.12 µM (active) | 1.29 µM (inactive) | 1.07 µM (active) | 0.682 µM (active) | 2.65 µM (inactive) | > 61 µM (inactive) | 1.67 µM (inactive) | 6.41 µM (inactive) | 1.42 µM (inactive)
5 | Cc1cccc2c1C(=O)[C@](C)([C@]1(C)Nc3cccc(C)c3C1=O)N2 | 18.2 µM | 28.1 µM (inactive) | 29.4 µM (inactive) | 10.8 µM (inactive) | 27.4 µM (inactive) | 30.8 µM (inactive) | 35.6 µM (inactive) |  | 54.1 µM (inactive) | 29.1 µM (inactive) | 28.8 µM (inactive) | 27.3 µM (inactive) | 33 µM (inactive) | 27.7 µM (inactive) | 37.6 µM (inactive) | 11 µM (inactive) | 29 µM (inactive)
6 | COc1cc(OCc2nc3ccccc3n3cccc23)cc(OC)c1OC | 8.09 µM | 13.8 µM (inactive) | 2.42 µM (inactive) | 1.34 µM (inactive) | 29.7 µM (inactive) | 10.6 µM (inactive) | 15.9 µM (inactive) | 32.7 µM (inactive) | > 100 µM (inactive) | 28.1 µM (inactive) | 3.78 µM (inactive) | > 51.1 µM (inactive) | 9.73 µM (inactive) | 17.9 µM (inactive) | 22.1 µM (inactive) | > 93.5 µM (inactive) | 24.8 µM (inactive)
7 | CN(C)CCOc1ccc2[nH]c(C(=O)N3CC(CCl)c4c3cc(NC(=O)OCc3ccc([N+](=O)[O-])cc3)c3ccccc43)cc2c1 (centres undefined) | 1.55 µM | 1.83 µM (inactive) | 1.45 µM (inactive) | 0.493 µM (active) | 1.18 µM (inactive) | 14.6 µM (inactive) | 1.29 µM (inactive) | 14.2 µM (inactive) | 1.51 µM (inactive) |  | 1.55 µM (inactive) | 1.71 µM (inactive) | 1.67 µM (inactive) | 1.34 µM (inactive) | 1.64 µM (inactive) | 1.63 µM (inactive) | 1.69 µM (inactive)
8 | CC1CCc2sc3nc(S)n(C)c(=O)c3c2C1 (centres undefined) | 39.5 µM | 33.7 µM (inactive) | 35.1 µM (inactive) | 36.7 µM (inactive) | 39.2 µM (inactive) | 35.3 µM (inactive) | 42.8 µM (inactive) | 63 µM (inactive) | 57.9 µM (inactive) | 40 µM (inactive) | 48.5 µM (inactive) | 33.8 µM (inactive) | 26.7 µM (inactive) | 36.1 µM (inactive) | 58.5 µM (inactive) | 35.9 µM (inactive) | 
9 | Cc1cccc2c1CC1(Cc3c(C)cccc3C1=O)C2=O | > 100 µM |  | > 100 µM (inactive) | > 100 µM (inactive) | > 100 µM (inactive) | > 100 µM (inactive) |  | > 100 µM (inactive) | > 100 µM (inactive) | > 100 µM (inactive) | > 100 µM (inactive) | > 100 µM (inactive) |  | > 100 µM (inactive) | > 100 µM (inactive) | > 100 µM (inactive) | > 100 µM (inactive)
10 | COC(=O)/C=C\C(C#N)(C#N)/N=C/c1cccs1 | 2.13 µM | 11.6 µM (inactive) | 0.813 µM (active) | 2.11 µM (inactive) | 1.88 µM (inactive) | 14.4 µM (inactive) | 17.2 µM (inactive) | 1.76 µM (inactive) | 2.51 µM (inactive) | 2 µM (inactive) | 2.93 µM (inactive) | 30.8 µM (inactive) | 7.53 µM (inactive) | 18.4 µM (inactive) | 8.83 µM (inactive) | 15.3 µM (inactive) | 
11 | C#CCOC(=O)C(N)CC(N)=O (centres undefined) | > 100 µM | > 100 µM (inactive) | > 100 µM (inactive) | > 100 µM (inactive) | > 100 µM (inactive) | > 100 µM (inactive) | > 100 µM (inactive) | > 100 µM (inactive) | > 100 µM (inactive) | > 31.6 µM (inactive) | > 69 µM (inactive) | > 100 µM (inactive) | > 100 µM (inactive) | > 100 µM (inactive) | > 100 µM (inactive) | > 100 µM (inactive) | > 100 µM (inactive)
12 | O=[N+]([O-])c1ccccc1S(=O)(=O)c1cc(O)cc2c1NCCC2 | 19.6 µM | 15.2 µM (inactive) | 13.9 µM (inactive) |  | 35.2 µM (inactive) | 13.5 µM (inactive) | 18.7 µM (inactive) | 21.4 µM (inactive) | 16.4 µM (inactive) | 13.3 µM (inactive) | 6.35 µM (inactive) | 28.5 µM (inactive) | 28.1 µM (inactive) | 21.4 µM (inactive) | 18.7 µM (inactive) | 14.5 µM (inactive) | 19.1 µM (inactive)
13 | CC(C)=CCC/C(C)=C/CC/C(C)=C/[C@@H]1[C@@H](CO)[C@]1(C)CC/C=C(\C)CCC=C(C)C | 30.3 µM |  | 46 µM (inactive) | 25.2 µM (inactive) | 46.3 µM (inactive) | 74.3 µM (inactive) | 35.7 µM (inactive) | 55.2 µM (inactive) | 23.7 µM (inactive) | 42.8 µM (inactive) | 41.3 µM (inactive) | > 100 µM (inactive) | 19.4 µM (inactive) | 22.4 µM (inactive) | > 100 µM (inactive) | > 100 µM (inactive) | 22 µM (inactive)
14 | COc1cc2c3c(c1O)-c1c(ccc(OC)c1OC)CC3N(C)CC2 (centres undefined) | > 100 µM | > 100 µM (inactive) | > 100 µM (inactive) | > 100 µM (inactive) | > 100 µM (inactive) | > 100 µM (inactive) | > 100 µM (inactive) | > 100 µM (inactive) | > 100 µM (inactive) | 77.4 µM (inactive) | > 100 µM (inactive) | > 100 µM (inactive) | > 100 µM (inactive) | > 100 µM (inactive) |  | > 100 µM (inactive) | > 100 µM (inactive)
15 | COc1ccc(COCC[C@H](C)OC2OC(CO[Si](C)(C)C(C)(C)C)C(OC(=O)CCCN=[N+]=[N-])C(OC(=O)CCCN=[N+]=[N-])C2OC(=O)CCCN=[N+]=[N-])cc1 (some centres undefined) | 28.4 µM | 58.9 µM (inactive) | 9.64 µM (inactive) |  | 36.9 µM (inactive) | 26.5 µM (inactive) | 88.1 µM (inactive) | > 100 µM (inactive) | 98.2 µM (inactive) | 22.3 µM (inactive) | 31 µM (inactive) |  | 8.39 µM (inactive) | 19.1 µM (inactive) | > 100 µM (inactive) | 14.2 µM (inactive) | 27.5 µM (inactive)
16 | C[C@H](CCC(=O)O)[C@H]1CC[C@H]2[C@@H]3[C@@H](O)C[C@@H]4C[C@H](O)CC[C@]4(C)[C@H]3CC[C@]12C | 67.3 µM | 76.2 µM (inactive) | 62.1 µM (inactive) | 38.1 µM (inactive) | > 100 µM (inactive) | 92.9 µM (inactive) | 60 µM (inactive) | 99.3 µM (inactive) | > 100 µM (inactive) | > 100 µM (inactive) | > 100 µM (inactive) | > 100 µM (inactive) | > 100 µM (inactive) | 38.7 µM (inactive) | 98.6 µM (inactive) | > 100 µM (inactive) | > 100 µM (inactive)
17 | N#C[BH2-][n+]1cn(C2CC(O)C(COP(=O)(O)OC3CC(n4c[n+]([BH2-]C#N)c5c(=O)[nH]c(N)nc54)OC3CO)O2)c2nc(N)[nH]c(=O)c21 (centres undefined) | > 100 µM | > 100 µM (inactive) | > 100 µM (inactive) | > 100 µM (inactive) | > 100 µM (inactive) |  | > 100 µM (inactive) |  | > 100 µM (inactive) | > 100 µM (inactive) | > 100 µM (inactive) | > 100 µM (inactive) | > 100 µM (inactive) | > 100 µM (inactive) | > 100 µM (inactive) | > 100 µM (inactive) | > 100 µM (inactive)
